Results on six compounds are retold here after US9630969B2, “N-alkyl tryptanthrin derivative, preparation method for same, and application thereof” (SHANGHAI TIN TSZ BIO VALLEY BIOLOGICAL ENGINEERING CO., LTD, priority 2013, dated 2017).

Test [1] addresses T1, human IDO (Homo sapiens, UniProt P14902).
T1 construct: made in house; host or cells: Escherichia coli
The test is described as follows: biochemical. As for the experimental part: The reaction was conducted under 37° C. for 30 minutes and was terminated by 30% (w/v) trichloroacetic acid (200 μl). The reaction system was heated under 65° C. for 15 minutes to convert the formyl kynurenine into kynurenine, and then rotated under 12000 rpm for 10 minutes. The supernatant was taken to mix with isometric p-dimethyl amidogen benzaldehyde in acetic acid (2% (w/v)) solution. The yellow color caused by the reaction of the mixture and kynurenine, can be observed at 490 nm by using Microplate Reader. The results were calculated with IC50 calculation software (see Table 1).

Test [2] concerns the target T1, human IDO. The test is described as follows: Determination of whether the inhibitor is reversible (v~[E] plot). The class given is biochemical. As to conditions: constant inhibitor concentration, different IDO enzyme amounts, 300 mM L-tryptophan, 37° C. 30 minutes. As for the experimental part: In case that the inhibitor concentration was constant, a series of enzymes of different concentrations are reacted with the inhibitor and the reaction rate was measured. The reaction rate to the enzyme concentration (v˜[E]) was plotted, thus it can be determined that whether it is a reversible inhibitor according to the curve characteristics.
The mixture was incubated under 37° C. for 5 min, then different volumes of IDO enzymes were added. The reaction was conducted at 37° C. for 30 minutes and was terminated by adding 30% (w/v) trichloroacetic acid (200 μl). The reaction system was heated at 65° C. for 15 minutes to convert the formyl kynurenine to kynurenine, and then rotated under 12000 rpm for 10 minutes. The supernatant was taken to mix with isometric solution of p-dimethyl amidogen benzaldehyde in acetic acid (2% (w/v)). The off scale reading at 490 nm was observed using a Microplate Reader. The v˜[E] was plotted.

The mark [3] stands for this setting: 150 mM substrate L-tryptophan, pH 6.5, 37° C. 30 minutes, read at 490 nm, read-out: IC50(in vitro).

What is called IC50 is the concentration that gives 50% inhibition.

SMILES strings stand for the structures. Read-outs that look alike come from different tables or passages of the source.

T1 sequence (P14902 whole entry): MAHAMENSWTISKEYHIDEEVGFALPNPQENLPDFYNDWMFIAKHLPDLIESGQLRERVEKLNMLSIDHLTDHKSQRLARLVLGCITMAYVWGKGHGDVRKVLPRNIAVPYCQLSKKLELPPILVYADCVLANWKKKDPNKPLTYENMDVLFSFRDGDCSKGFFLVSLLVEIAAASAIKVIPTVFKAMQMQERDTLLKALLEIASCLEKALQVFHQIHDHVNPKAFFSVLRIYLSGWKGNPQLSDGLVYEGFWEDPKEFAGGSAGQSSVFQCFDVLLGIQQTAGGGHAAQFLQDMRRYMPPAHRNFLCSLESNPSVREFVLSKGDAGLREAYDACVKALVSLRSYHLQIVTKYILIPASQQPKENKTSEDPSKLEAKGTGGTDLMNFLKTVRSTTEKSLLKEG

On to `O=C1c2cc(F)ccc2-n2c1nc1ccc(N3CCNCC3)cc1c2=O` [Compound 5], for which the IC50 in test [1] (setting [3]) was 1.19 µM. In addition, in test [2], the “Reversible Inhibitor or Not” value was “Reversible”.
Regarding `O=C1c2cc(F)ccc2-n2c1nc1ccc(N3CCCCC3)cc1c2=O` [Compound 9], the IC50 in test [1] (setting [3]) is 1.8 µM. Also, in test [2], the “Reversible Inhibitor or Not” value was “Reversible”.
With `O=C1c2c(N3CCNCC3)cccc2-n2c1nc1ccccc1c2=O` [Comparison 1, 7-piperazine tryptanthrin, reference compound], the IC50 in test [1] came to 54.3 µM. Further, the “Reversible Inhibitor or Not” value in test [2] is given as “Reversible”.
Take `CN1CCN(c2ccc3nc4n(c(=O)c3c2)-c2ccccc2C4=O)CC1` [Compound 11]: in test [1] (setting [3]), the IC50 was 8.01 µM. In addition, the “Reversible Inhibitor or Not” value in test [2] is reported as “Reversible”.
For `CN(C)c1ccc2nc3n(c(=O)c2c1)-c1ccc(F)cc1C3=O` [Compound 7], the half-inhibitory concentration (IC50) in test [1] (setting [3]) turned out to be 10.3 µM. Besides, in test [2], the “Reversible Inhibitor or Not” value was “Reversible”.
`CN1CCN(c2ccc3nc4n(c(=O)c3c2)-c2ccc(F)cc2C4=O)CC1` [Compound 6]: in test [1] (setting [3]), the IC50 stood at 2.2 µM. Moreover, the “Reversible Inhibitor or Not” value in test [2] is on record as “Reversible”.
